{"source": "paper PMC8262356", "about": "“SLC26A6-selective inhibitor identified in a small-molecule screen blocks fluid absorption in small intestine” (JCI Insight, 2021)", "test_system": "ileal closed loops in cystic fibrosis (CF) mice (homozygous F508del)", "experiment": "Closed ileal loop fluid absorption in CF mice", "format": "in vivo, mouse", "conditions": "30 μM luminal", "description": "For fluid absorption studies in small intestine, mice were given free access to 5% dextrose in water but not solid food for 24 hours before experiments. Closed midjejunal and ileal loops were prepared and isolated as described previously ([29]). Mice were anesthetized with isoflurane, and body temperature was maintained during surgery at 36°C–38°C using a heating pad. A small abdominal incision was made to expose small intestine for isolation of 3–4 closed small intestinal loops (jejunum or ileum, length 2–3 cm) with sutures. Loops were injected with 100 μL PBS (pH 7.4, 137 mM NaCl, 2.7 mM KCl, 8 mM Na2HPO4, 1.8 mM KH2PO4, 1 mM CaCl2, 0.5 mM MgCl2) containing 30 μM PAT1inh-B01, 10 μM DRAinh-A270, or 10 μM tenapanor (MedChemExpress) (or vehicle, 0.1% DMSO in PBS). In some experiments, 30 μM PAT1inh-B01 and 10 μM DRAinh-A270 were used together. In some experiments to rule out effects of sodium-dependent phosphate transport, the loop lumen contained HEPES-buffered saline (pH 7.4, 137 mM NaCl, 4.5 mM KCl, 10 mM HEPES, 1 mM CaCl2, 0.5 mM MgCl2). The abdominal incision was closed with sutures, and mice were allowed to recover from anesthesia. Intestinal loops were removed at 0 and 30 minutes (in separate mice), and loop length and weight were measured to quantify fluid absorption. In parallel experiments, CF mice were used and loop studies were done as described above. In some experiments, loop fluid was emptied with a syringe, and pH was measured immediately using AB15 pH meter after brief centrifugation at 2000 g for 5 minutes at 4°C.", "data": [{"smiles": "Cc1c(Br)c(C(F)(F)F)nn1CC(=O)N1CCc2nc3cc(-c4ccccc4)[nH]n3c(=O)c2C1", "note": "[PAT1inh-B01]", "values": [{"measurement": "effect on fluid absorption from ilea of CF mice", "value": "completely blocked"}]}]}
